Reference: patent US10016408B2, “Chemokine CXCR4 receptor modulators and uses related thereto” (EMORY UNIVERSITY, priority 2010, dated 2018)
Like-named read-outs stand apart in the source and are kept apart here.

Experiments:
HIV-1 IIIB = assay: MAGI-CXCR4 HIV-1 IIIB antiviral assay (β-galactosidase reporter); settings: for inhibition at 1 µM: MAGI, read-out: MAGI HIV IIIB % Inhibition at 1 uM, 1 uM compound; for T.I. (TC50/IC50): therapeutic index, MAGI assay; for MAGI HIV IIIB % Inhibition at 1 uM: 1 uM compound
Text: Example 2: MAGI-CXCR4 HIV-1 IIIB Assay Procedure
(§1) MAGI-CXC4 cells (obtained from the NIH AIDS Research and Reference Reagent Program) are passed into T-75 flasks prior to use in the antiviral assay. MAGI-CXCR4 cells are derived from HeLa-CD4-LTR-β-gal cells. The cells have been engineered to express high levels of CD4 and […] and contain one copy of the HIV-1 LTR promoter driving expression of the β-galactosidase gene upon HIV-1 Tat transactivation. On the day preceding the assay, the cells are plated at 1.0×10^4 per well and incubated at 37° C. overnight. Total cell and viability quantification is performed using a hemacytometer and trypan blue exclusion.
The virus used for these tests is the […](CXCR4-tropic strain HIV-1NL4-3 is also available for use). This virus was obtained from the NIH AIDS Research and Reference Reagent Program and was grown in Ghost Hi5/MAGI-CXCR4 co-cultures for the production of stock virus pools. For each assay, a pre-titered aliquot of virus is removed from the freezer (−80° C.) and allowed to thaw slowly to room temperature in a biological safety cabinet. The virus is re-suspended and diluted into tissue culture medium such that the amount of virus added to each well in a volume of […] is approximately ten TCID50/well (˜0.001 TCID50/cell).
(§2) Compounds are evaluated at one or two concentrations (e.g., for initial screening) or in dose-response at six concentrations (triplicate wells/concentration). On the day of assay setup, compound dilutions are prepared at two-times (2×) the final required concentrations. Media used for plating the cells the day before assay setup is aspirated from the plates and replaced with 50 μL of the 2× compounds, followed by the addition of 50 μL of virus, which dilutes the compounds to the final 1× concentrations. Cell control wells (cells only) and virus control wells (cells plus virus) are included on each assay plate. Identical uninfected assay plates (virus replaced with media) are prepared for parallel cytotoxicity testing. The cultures are incubated for 48 hours or 6 days (depending on compound or client requirements) after which antiviral efficacy is measured as the inhibition of β-galactosidase reporter expression and cytotoxicity is monitored by MTS staining.
A chemiluminescent endpoint is used to determine the extent of β-galactosidase expression as a measure of HIV-1 infection of the cells. Once HIV-1 has attached and entered the MAGI-CXCR4 cells, HIV-1 Tat transactivates the LTR dependent β-galactosidase enzyme to express higher than normal levels of β-galactosidase. Thus there is a direct relationship between the level of HIV-1 infection and the level of β-galactosidase detected in the cells. At 48 hours post infection, plates are aspirated and PBS is added to each well. Gal-screen reagent (Tropix, Bedford, Mass.) is then added per the manufacturer's instructions for chemiluminescent detection of β-galactosidase activity and incubated at room temperature for 90 minutes. The resulting chemiluminescence signal is then read using a Microbeta Trilux luminescence reader (PerkinElmer/Wallac).
(§3) At assay termination, the cytotoxicity assay plates are stained with the soluble tetrazolium-based dye MTS (CellTiter Reagent, Promega) to determine cell viability and quantify compound toxicity. […] At termination of the assay, 15 μL of MTS reagent is added per well. The microtiter plates are then incubated 1.5-2 hrs at 37° C.; the incubation interval was chosen based on empirically determined times for optimal dye reduction. The plates are read spectrophotometrically at 490/650 nm with a Molecular Devices Vmax plate reader. Percent inhibition of virus replication and percent cell viability at each concentration are calculated using an in-house computer program.

HIV IIIB virus = assay: Peripheral blood mononuclear cell HIV IIIB assay; settings: for IC50: read-out: PBMC-HIV IC50; for IC90: read-out: PBMC-HIV IC90; for T.I. (TC50/IC50): therapeutic index
Procedure: (§4) To test efficacy of selected compounds, peripheral mononuclear cell assays are performed. Cells are infected for 6 days with live HIV IIIB virus and PBM cells are run in parallel for cytotoxicity testing, with or without selected agents. Efficacy of compounds as antagonists of the sdf-1 ligand to CXCR4 receptors was determined in I^125 labeled sdf-1 displacement assays from CXCR4-expressing CEM cells are performed.

in vitro [1] = settings: human
Procedure: as §1, §2, §3

in vitro [2] = settings: human; remark: listed apart in the source
Procedure: as §4

PBM cells = assay: in vitro
Procedure: as §4

MAGI-CXCR4 cells = assay: in vitro
Procedure: as §1, §2, §3

[3] = Human immunodeficiency virus 1, IIIB, MAGI-CXCR4 cells
[4] = Human immunodeficiency virus 1, IIIB, PBMC, 144 h
[5] = Human immunodeficiency virus 1, IIIB, read-out: HIV IC90, MAGI-CXCR4 cells, further testing
[6] = PBMC infected 6 days with live HIV IIIB
[7] = read-out: HIV IC90, MAGI-CXCR4 cells, further testing
[8] = read-out: HIV IC50, MAGI-CXCR4 cells, further testing

Compound: NCCCCN(C[C@@H]1CC(OCCCN)CN1C(=O)OCc1ccccc1)C1CCCc2cccnc21 (stereo partly drawn)
- inhibition at 1 µM (HIV-1 IIIB; [3]): 0%

Compound: CN(C[C@@H]1CC(OCCCN)CN1C(=O)OCc1ccccc1)C1CCCc2cccnc21 (stereo partly drawn)
- inhibition at 1 µM (HIV-1 IIIB; [3]): 0%

Compound: NCCCCN(C[C@@H]1CC(OCc2ccccc2)CN1)C1CCCc2cccnc21 (stereo partly drawn)
- inhibition at 1 µM (HIV-1 IIIB; [3]): 0%

Compound: NCCCCN(C[C@@H]1CC(c2ccccc2)CN1)C1CCCc2cccnc21 (stereo partly drawn)
- inhibition at 1 µM (HIV-1 IIIB; [3]): 20%

Compound: CN(CC1CN(Cc2ccccc2)CCN1)C1CCCc2cccnc21 (stereo not drawn)
- inhibition at 1 µM (HIV-1 IIIB; [3]): 41%

Compound: CN(CC1Cc2ccccc2CN1)C1CCCc2cccnc21 (stereo not drawn)
- inhibition at 1 µM (HIV-1 IIIB; [3]): 30%

Compound: O=C1c2ccccc2C(=O)N1CCCCN(CC1Cc2ccccc2CN1)C1CCCc2cccnc21 (stereo not drawn)
- inhibition at 1 µM (HIV-1 IIIB; [3]): 25%

Compound: c1cc(CN2CCCNCCNCCCNCC2)ccc1CN1CCCNCCNCCCNCC1 [AMD3100, reference compound]
- IC50 (HIV IIIB virus; [4]): 32 nM
- IC90 (HIV IIIB virus; [4]): 134 nM
- T.I. (TC50/IC50) (HIV IIIB virus; PBMC): >150
- CC50 (in vitro [1]): > 10000 nM
- IC50 (HIV-1 IIIB; Human immunodeficiency virus 1, IIIB, read-out: HIV IC50, MAGI-CXCR4 cells, further testing): 2 nM
- IC90 (HIV-1 IIIB; [5]): 7 nM
- T.I. (TC50/IC50) (HIV-1 IIIB): >5000
- CC50 at 6 days (in vitro [2]): > 5000 nM

Compound: Cc1cn([C@H]2C[C@H](N=[N+]=[N-])[C@@H](CO)O2)c(=O)[nH]c1=O [AZT]
- IC50 (HIV IIIB virus; [6]): 4 nM
- IC90 (HIV IIIB virus; [6]): 70 nM
- T.I. (TC50/IC50) (HIV IIIB virus; PBMC): >240
- CC50 (PBM cells): > 1000 nM

Compound: NCCCCN(CC1CN(Cc2ccccc2)CCN1)C1CCCc2cccnc21 (stereo not drawn) [Compound 8]
- CC50 (MAGI-CXCR4 cells; human): > 10000 nM
- MAGI HIV IIIB % Inhibition at 1 uM (HIV-1 IIIB; MAGI-CXCR4 cells): 95%
- IC90 (HIV-1 IIIB; [7]): 720 nM
- T.I. (TC50/IC50) (HIV-1 IIIB): >67

Compound: NCCCCN(CC1CN(Cc2ccccc2)CCN1)C1CCCc2cccnc21 (stereo not drawn) [Compound 9]
- CC50 (in vitro [1]): > 10000 nM
- inhibition at 1 µM (HIV-1 IIIB; [3]): 92%
- IC90 (HIV-1 IIIB; [5]): 440 nM
- IC50 (HIV-1 IIIB; [8]): 30 nM
- IC50 (HIV-1 IIIB; read-out: MAGI HIV IIIB IC50, MAGI-CXCR4 cells): 30 nM
- T.I. (TC50/IC50) (HIV-1 IIIB): >333

Compound: Cc1ccc(-c2ccc3c(c2)C=C(C(=O)Nc2ccc(C[N+](C)(C)C4CCOCC4)cc2)CCC3)cc1 [TAK779, reference compound]
- CC50 (MAGI-CXCR4 cells; read-out: TC50, MTS staining, uninfected MAGI-CXCR4 cells): > 10000 nM
- IC50 (HIV-1 IIIB; [8]): > 10000 nM
- IC90 (HIV-1 IIIB; [7]): > 10000 nM

Compound: NCCCCN(CC1CCc2ccccc2N1)C1CCCc2cccnc21 (stereo not drawn) [drawing 40]
- inhibition at 1 µM (HIV-1 IIIB; [3]): 42%

Compound: NCCCCN(CC1CCc2ccccc2N1)C1CCCc2cccnc21 (stereo not drawn) [drawing 41]
- MAGI HIV IIIB % Inhibition at 1 uM (HIV-1 IIIB; MAGI-CXCR4 cells): 31% @ 1 uM

Compound: Maraviroc
- IC50 (HIV IIIB virus; [6]): > 2000 nM
- IC90 (HIV IIIB virus; [6]): > 2000 nM
